Patent US20240226228A1, “ANTIMICROBIAL PEPTOID HAVING IMPROVED SELECTIVITY AND ANTIMICROBIAL COMPOSITION COMPRISING SAME” (priority 2021, published 2024)
Blank lines part the entries; values can stand above or below the compound they belong to. Where a SMILES comes first, the peptide text is derived from it. Where no end group is shown, it is not given here. [ ]: non-standard residue; d: D form. Gly(N(CH2)2(3-indolyl)) = O=C(O)CNCCc1c[nH]c2ccccc12; Gly(N-CH2CH2-imidazol-4-yl) = O=C(O)CNCCc1c[nH]cn1; Nspe = C[C@H](NCC(=O)O)c1ccccc1; Nlys = NCCCCNCC(=O)O

Columns and labels:
S. aureus ATCC 25923 = conditions: Tables 11-13; 24 hours at 37° C.; maximum concentration 25 μM
Description: (§1) To measure the antimicrobial activity of the peptoids synthesized in Example 1, an E. coli ATCC25922 strain as gram-negative bacteria and an S. aureus KCTC25923 strain as gram-positive bacteris, were treated with the peptoids, followed by measuring the minimum inhibitory concentration (MIC). Peptoids 1 and 2 are antimicrobial peptoids known in the art, and used as controls for comparing antimicrobial activity with a novel peptoid.
(§2) Specifically, the S. aureus KCTC25923 or E. coli ATCC25922 strain was inoculated into a Mueller Hinton Broth (MHB2) liquid medium in which cations had been adjusted in the medium, cultured at 37° C. for 18 hours, subcultured, and then incubated for 4 hours. Afterward, for each bacterial strain, an optical density (OD, 0.001) was adjusted so that the bacterial count became 2×10^5 to 5×10^5 colony-forming units (CFU) per mL, which was then diluted with a MHB2 liquid medium containing 0.02% bovine serum albumin and 0.001% acetic acid, and dispensed at 100 μL into a 96-well microplate. Using sterile water, a peptoid stock 40 times stronger than a concentration to be tested was subjected to two-fold serial dilution and assessed at six different concentrations, and the maximum value of the peptoid concentrations was 25 μM. Subsequently, the plate was incubated at 37° C. for 24 hours. Afterward, optical density (OD) values at 600 nm were measured using a microplate reader (Bio-Rad).
(§3) Each MIC value was determined as the average value of a value obtained through three independent experiments.
(§4) Referring to Table 22, to measure the antimicrobial activity of the peptoids synthesized in Example 3, an MIC was measured by treating gram-negative bacteria, that is, the E. coli ATCC25922 strain, and gram-positive bacteria, that is, the S. aureus ATCC25923 strain, with the peptoids. Here, Peptoid 1 is a conventionally known antimicrobial peptoid, and Omiganan is a derivative of indolicidin, which is an antimicrobial peptide, under clinical development, and was used as a control for comparing antimicrobial activity with the novel peptoid.

red blood cells = assay: Hemolysis assay; assay type: cell-based, Sprague-Dawley mouse
Description: To confirm cytotoxicity by the hemolytic activity of each peptoid synthesized in Example 1, hemolysis analysis was performed. The used blood was collected from a 13-week-old male Sprague-Dawley […] in a tube containing 158 UPS sodium heparin for preventing coagulation, and centrifuged at 4° C. for 10 minutes at 1,000 rpm. Afterward, the plasma was carefully removed, red blood cells were washed with phosphate-buffered saline (PBS: a mixed solution of 35 mM phosphate-buffered solution/150 mM NaCl, pH 7.4) three times and centrifuged at 1,000 rpm for 10 minutes. A 10% (v/v) red blood cell solution diluted in PBS was dispensed at 150 μL into a 96-well plate (microtiter plate), a peptoid solution was added at 50 μL, and 1% Triton X-100 was added. Afterward, the red blood cells were incubated at 37° C. for 1 hour, and the incubated 96-well plate was centrifuged at 1,000 rpm for 15 minutes. A supernatant was obtained and transferred to a new 96-well plate at 150 μL, and absorbance was measured using a spectrophotometer at 540 nm. Percent hemolysis may be calculated by the following Equation 1, and the corresponding results are shown in Tables 11 to 13. % Hemolysis=(A−C)/(B−C)×100 [Equation 1] In Equation 1, A is the absorbance of the peptoid solution at 540 nm, B is the absorbance of the 0.1% Triton X-100 at 540 nm, and C is the absorbance of the PBS solution at 540 nm.

E. coli ATCC25922 = conditions: for antimicrobial activity (in words): E. coli and S. aureus, compared to Peptoid 1, parent peptoid or TFA salt as stated
Description: as §1, §2, §3, §4

Compound: C[C@@H](c1ccccc1)N(CC(N)=O)C(=O)CN(CCCCN)C(=O)CN(C(=O)CN(C(=O)CN(CCCCN)C(=O)CN(C(=O)CN(C(=O)CN(CCCCN)C(=O)CN(C(=O)CN(CCCCN)C(=O)CNCCCCN)[C@@H](C)c1ccccc1)[C@@H](C)c1ccccc1)[C@@H](C)c1ccccc1)[C@@H](C)c1ccccc1)[C@@H](C)c1ccccc1 [Peptoid 49]
MIC S. aureus ATCC 25923 (S. aureus ATCC 25923): >25 µM | HC10 (red blood cells): >100/>100 μM | HC50 (red blood cells): >100/>100 μM | Hmax (100 μM) (red blood cells): 0.3 ± 0.3%

Compound: C[C@@H](c1ccccc1)N(CC(=O)N(CCCCN)CC(=O)N(CC(=O)N(CC(=O)N(CCCCN)CC(=O)N(CC(=O)N(CC(=O)N(CCCCN)CC(=O)N(CCCCN)CC(N)=O)[C@@H](C)c1ccccc1)[C@@H](C)c1ccccc1)[C@@H](C)c1ccccc1)[C@@H](C)c1ccccc1)C(=O)CN(C(=O)CNCCCCN)[C@@H](C)c1ccccc1 [Peptoid 52] (H-[Nlys][Nspe][Nspe][Nlys][Nspe][Nspe][Nlys][Nspe][Nspe][Nlys][Nlys]-NH2)
MIC S. aureus ATCC 25923 (S. aureus ATCC 25923): >25 µM

Compound: C[C@@H](c1ccccc1)N(CC(=O)N(CCCCN)CC(=O)N(CCc1c[nH]c2ccccc12)CC(=O)N(CCc1c[nH]c2ccccc12)CC(N)=O)C(=O)CN(CCCCN)C(=O)CN(CCc1c[nH]cn1)C(=O)CN(C(=O)CN(C(=O)CN(CCCCN)C(=O)CN(C(=O)CN(C(=O)CNCCCCN)[C@@H](C)c1ccccc1)[C@@H](C)c1ccccc1)[C@@H](C)c1ccccc1)[C@@H](C)c1ccccc1 [Peptoid 79, H-NLys-Nspe-Nspe-NLys-Nspe-Nspe-NHis-NLys-Nspe-NLys-NhTrp-NhTrp-NH2] (H-[Nlys][Nspe][Nspe][Nlys][Nspe][Nspe][Gly(N-CH2CH2-imidazol-4-yl)][Nlys][Nspe][Nlys][Gly(N(CH2)2(3-indolyl))][Gly(N(CH2)2(3-indolyl))]-NH2)
antimicrobial activity (in words) (E. coli ATCC25922): retained antimicrobial activity | cytotoxicity against red blood cells / hemolysis (in words) (red blood cells): improved in toxicity

Compound: C[C@@H](c1ccccc1)N(CC(=O)N(CCCCN)CC(=O)N(CCc1c[nH]c2ccccc12)CC(=O)N(CCc1c[nH]c2ccccc12)CC(N)=O)C(=O)CN(CCCCN)C(=O)CN(CCCCN)C(=O)CN(C(=O)CN(C(=O)CN(CCc1c[nH]cn1)C(=O)CN(C(=O)CN(C(=O)CNCCCCN)[C@@H](C)c1ccccc1)[C@@H](C)c1ccccc1)[C@@H](C)c1ccccc1)[C@@H](C)c1ccccc1 [Peptoid 80, H-NLys-Nspe-Nspe-NHis-Nspe-Nspe-NLys-NLys-Nspe-NLys-NhTrp-NhTrp-NH2] (H-[Nlys][Nspe][Nspe][Gly(N-CH2CH2-imidazol-4-yl)][Nspe][Nspe][Nlys][Nlys][Nspe][Nlys][Gly(N(CH2)2(3-indolyl))][Gly(N(CH2)2(3-indolyl))]-NH2)
antimicrobial activity (in words) (E. coli ATCC25922): reduced antimicrobial activity | cytotoxicity against red blood cells / hemolysis (in words) (red blood cells): improved toxicity

Compound: C[C@@H](c1ccccc1)N(CC(=O)N(CCCCN)CC(=O)N(CCc1c[nH]c2ccccc12)CC(=O)N(CCc1c[nH]c2ccccc12)CC(N)=O)C(=O)CN(CCCCN)C(=O)CN(CCCCN)C(=O)CN(C(=O)CN(C(=O)CN(CCCCN)C(=O)CN(C(=O)CN(C(=O)CNCCc1c[nH]cn1)[C@@H](C)c1ccccc1)[C@@H](C)c1ccccc1)[C@@H](C)c1ccccc1)[C@@H](C)c1ccccc1 [Peptoid 81, H-NHis-Nspe-Nspe-NLys-Nspe-Nspe-NLys-NLys-Nspe-NLys-NhTrp-NhTrp-NH2] (H-[Gly(N-CH2CH2-imidazol-4-yl)][Nspe][Nspe][Nlys][Nspe][Nspe][Nlys][Nlys][Nspe][Nlys][Gly(N(CH2)2(3-indolyl))][Gly(N(CH2)2(3-indolyl))]-NH2)
antimicrobial activity (in words) (E. coli ATCC25922): retained antimicrobial activity | cytotoxicity against red blood cells / hemolysis (in words) (red blood cells): improved in toxicity

MIC E. coli ATCC25922 (E. coli ATCC25922; ATCC25922): 12.5~25 μM
Compound: ILRWPWWPWRRK-NH2 [Omiganan, reference compound]
Hmax (100 μM) (red blood cells): 0
